Laboratory results published in patent US20170143674A1, “Use of Glutaryl Histamine for the Treatment of Respiratory Tract Diseases” (LTD "VALENTA-INTELLEKT", priority 2011, published 2017).

Legend:
[1] = test system: Staphylococcus aureus (mouse-adapted MRSA strain 5); experiment: animal or person; type: in vivo, mice
Description: (§1) Tested medicament was glutaryl histamine in doses of 15, 30 and 45 mg/kg. Solutions of the tested medicament for oral administration were prepared ex tempore in stream water. Ampicillin (in intravenous administration) was used as a therapeutic preparation since it is the most experimentally studied antibiotic approved in clinical practice many years ago. Levofloxacin was used as a positive control (in oral administration).
Staphylococcus aureus was used as an infectious agent (mouse-adapted MRSA strain 5, collection from GU NIINA im.G.F. Gauze RAMN).
Firstly, there was determined a lethal dose (LD100) of staphylococcus when intravenously administered to this line of mice with a certain weight. Fatal cases among mice were registered every day for ten days. […] After that, there was determined the dose of ampicillin providing a survival rate of 20% of mice infected with staphylococcus MRSA taken in a lethal dose. For this purpose, mice were housed into cages by 10 animals and infected with a lethal dose of staphylococcus. One hour later, each mouse was intravenously administered ampicillin in doses of 30, 60, 90, 120, 150, and 180 mg/kg. A group of mice infected with a lethal dose of staphylococcus without the treatment was considered as a control group. Fatal cases among mice were registered every day for ten days.
The next step of the experiment was to study an effect of combined administration of glutaryl histamine with ampicilline on a model of MRSA-induced staphylococcal sepsis in mice.
In the experiment, the mice were housed in following groups of 10 animals per cage: […]

[2] = test system: Staphylococcus aureus (mouse-adapted strain 10); experiment: animal or person; type: in vivo, mice
Description: as §1, with “The tested” for “Tested”, “tempore.” for “tempore in stream water.”, “this substance was” for “it is”, “ago.” for “ago. Levofloxacin was used as a positive control (in oral administration).”
Staphylococcus aureus (mouse-adapted strain 10) was used as an infectious agent. Mice were infected intravenously.
Firstly, there was determined a lethal dose (LD100) of staphylococcus when intravenously administered to this line of mice with a certain weight. Fatal cases among mice were registered every day for ten days. The lethal dose was 3×10^8 CFU/mouse. […] For this purpose, mice were housed into cages (10 animals per cage) and infected with a lethal dose of staphylococcus. One hour later, each mouse was intravenously administered ampicillin in doses of 10, 20, 30, 40, and 50 mg/kg. A group of mice infected with a lethal dose of staphylococcus without the treatment was considered as a control group. Fatal cases among mice were registered every day for ten days.
The next step of the experiment was to study an effect of combined administration of glutaryl histamine with ampicillin on a model of staphylococcal sepsis in mice.
In the experiment, mice were housed in following groups (10 animals per cage):
Glutaryl histamine was administered orally in the corresponding doses to mice of groups 3, 4, 5, 6, 7, and 8 for 5 days. Five day after, all groups of mice were intravenously administered 0.2 ml of Staphylococcus aureus in the lethal dose. One hour after infection, mice of groups 2, 6, 7 and 8 were […] administered 0.2 ml of ampicillin in a dose of 20 mg/kg. After infection and administration of ampicillin, mice of groups 3-8 were administered glutaryl histamine for additional 5 days. During the experiment, the animals were observed every day, and fatal cases were registered.

[3] = group 2: ampicillin 120 mg/ml i.v. one time

## CC1(C)S[C@@H]2[C@H](NC(=O)[C@H](N)c3ccccc3)C(=O)N2[C@H]1C(=O)O [ampicillin]
[1]; ampicillin 30 mg/kg + LD100 St.a., day 10
  Survival rate (%): 0%
[1]; ampicillin 60 mg/kg + LD100 St.a., day 10
  Survival rate (%): 0%
[1]; ampicillin 90 mg/kg + LD100 St.a., day 10
  Survival rate (%): 10%
[1]; ampicillin 120 mg/kg + LD100 St.a., day 10
  Survival rate (%): 20%
[1]; ampicillin 150 mg/kg + LD100 St.a., day 10
  Survival rate (%): 20%
[1]; ampicillin 180 mg/kg + LD100 St.a., day 10
  Survival rate (%): 20%
[1]; day 1, ampicillin 30 mg/kg + LD100 St.a.
  died/survived animals: 0/10
[1]; day 1, ampicillin 60 mg/kg + LD100 St.a.
  died/survived animals: 0/10
[1]; day 1, ampicillin 90 mg/kg + LD100 St.a.
  died/survived animals: 0/10
[1]; day 1, ampicillin 120 mg/kg + LD100 St.a.
  died/survived animals: 0/10
[1]; day 1, ampicillin 150 mg/kg + LD100 St.a.
  died/survived animals: 0/10
[1]; day 1, ampicillin 180 mg/kg + LD100 St.a.
  died/survived animals: 0/10
[1]; day 1, group 2: ampicillin 120 mg/ml i.v. one time
  died/survived animals: 0/10
[1]; day 2, ampicillin 30 mg/kg + LD100 St.a.
  died/survived animals: 1/9
[1]; day 2, ampicillin 60 mg/kg + LD100 St.a.
  died/survived animals: 0/10
[1]; day 2, ampicillin 90 mg/kg + LD100 St.a.
  died/survived animals: 0/10
[1]; day 2, ampicillin 120 mg/kg + LD100 St.a.
  died/survived animals: 0/10
[1]; day 2, ampicillin 150 mg/kg + LD100 St.a.
  died/survived animals: 0/10
[1]; day 2, ampicillin 180 mg/kg + LD100 St.a.
  died/survived animals: 0/10
[1]; day 2, group 2: ampicillin 120 mg/ml i.v. one time
  died/survived animals: 0/10
[1]; day 3, ampicillin 30 mg/kg + LD100 St.a.
  died/survived animals: 3/7
[1]; day 3, ampicillin 60 mg/kg + LD100 St.a.
  died/survived animals: 2/8
[1]; day 3, ampicillin 90 mg/kg + LD100 St.a.
  died/survived animals: 1/9
[1]; day 3, ampicillin 120 mg/kg + LD100 St.a.
  died/survived animals: 1/9
[1]; day 3, ampicillin 150 mg/kg + LD100 St.a.
  died/survived animals: 0/10
[1]; day 3, ampicillin 180 mg/kg + LD100 St.a.
  died/survived animals: 0/10
[1]; day 3, group 2: ampicillin 120 mg/ml i.v. one time
  died/survived animals: 1/9
[1]; day 4, ampicillin 30 mg/kg + LD100 St.a.
  died/survived animals: 6/4
[1]; day 4, ampicillin 60 mg/kg + LD100 St.a.
  died/survived animals: 4/6
[1]; day 4, ampicillin 90 mg/kg + LD100 St.a.
  died/survived animals: 3/7
[1]; day 4, ampicillin 120 mg/kg + LD100 St.a.
  died/survived animals: 4/6
[1]; day 4, ampicillin 150 mg/kg + LD100 St.a.
  died/survived animals: 3/7
[1]; day 4, ampicillin 180 mg/kg + LD100 St.a.
  died/survived animals: 2/8
[1]; day 4, group 2: ampicillin 120 mg/ml i.v. one time
  died/survived animals: 2/8
[1]; day 5, ampicillin 30 mg/kg + LD100 St.a.
  died/survived animals: 8/2
[1]; day 5, ampicillin 60 mg/kg + LD100 St.a.
  died/survived animals: 6/4
[1]; day 5, ampicillin 90 mg/kg + LD100 St.a.
  died/survived animals: 5/5
[1]; day 5, ampicillin 120 mg/kg + LD100 St.a.
  died/survived animals: 6/4
[1]; day 5, ampicillin 150 mg/kg + LD100 St.a.
  died/survived animals: 5/5
[1]; day 5, ampicillin 180 mg/kg + LD100 St.a.
  died/survived animals: 4/6
[1]; day 5, group 2: ampicillin 120 mg/ml i.v. one time
  died/survived animals: 3/7
[1]; day 6, ampicillin 30 mg/kg + LD100 St.a.
  died/survived animals: 9/1
[1]; day 6, ampicillin 60 mg/kg + LD100 St.a.
  died/survived animals: 8/2
[1]; day 6, ampicillin 90 mg/kg + LD100 St.a.
  died/survived animals: 7/3
[1]; day 6, ampicillin 120 mg/kg + LD100 St.a.
  died/survived animals: 7/3
[1]; day 6, ampicillin 150 mg/kg + LD100 St.a.
  died/survived animals: 7/3
[1]; day 6, ampicillin 180 mg/kg + LD100 St.a.
  died/survived animals: 6/4
[1]; day 6, group 2: ampicillin 120 mg/ml i.v. one time
  died/survived animals: 5/5
[1]; day 7, ampicillin 30 mg/kg + LD100 St.a.
  died/survived animals: 10/0
[1]; day 7, ampicillin 60 mg/kg + LD100 St.a.
  died/survived animals: 9/1
[1]; day 7, ampicillin 90 mg/kg + LD100 St.a.
  died/survived animals: 8/2
[1]; day 7, ampicillin 120 mg/kg + LD100 St.a.
  died/survived animals: 8/2
[1]; day 7, ampicillin 150 mg/kg + LD100 St.a.
  died/survived animals: 7/3
[1]; day 7, ampicillin 180 mg/kg + LD100 St.a.
  died/survived animals: 7/3
[1]; day 7, group 2: ampicillin 120 mg/ml i.v. one time
  died/survived animals: 6/4
[1]; day 8, ampicillin 30 mg/kg + LD100 St.a.
  died/survived animals: 10/0
[1]; day 8, ampicillin 60 mg/kg + LD100 St.a.
  died/survived animals: 10/0
[1]; day 8, ampicillin 90 mg/kg + LD100 St.a.
  died/survived animals: 9/1
[1]; day 8, ampicillin 120 mg/kg + LD100 St.a.
  died/survived animals: 8/2
[1]; day 8, ampicillin 150 mg/kg + LD100 St.a.
  died/survived animals: 8/2
[1]; day 8, ampicillin 180 mg/kg + LD100 St.a.
  died/survived animals: 7/3
[1]; day 8, group 2: ampicillin 120 mg/ml i.v. one time
  died/survived animals: 7/3
[1]; day 9, ampicillin 30 mg/kg + LD100 St.a.
  died/survived animals: 10/0
[1]; day 9, ampicillin 60 mg/kg + LD100 St.a.
  died/survived animals: 10/0
[1]; day 9, ampicillin 90 mg/kg + LD100 St.a.
  died/survived animals: 9/1
[1]; day 9, ampicillin 120 mg/kg + LD100 St.a.
  died/survived animals: 8/2
[1]; day 9, ampicillin 150 mg/kg + LD100 St.a.
  died/survived animals: 8/2
[1]; day 9, ampicillin 180 mg/kg + LD100 St.a.
  died/survived animals: 8/2
[1]; day 9, group 2: ampicillin 120 mg/ml i.v. one time
  died/survived animals: 8/2
[1]; day 10, ampicillin 30 mg/kg + LD100 St.a.
  died/survived animals: 10/0
[1]; day 10, ampicillin 60 mg/kg + LD100 St.a.
  died/survived animals: 10/0
[1]; day 10, ampicillin 90 mg/kg + LD100 St.a.
  died/survived animals: 9/1
[1]; day 10, ampicillin 120 mg/kg + LD100 St.a.
  died/survived animals: 8/2
[1]; day 10, ampicillin 150 mg/kg + LD100 St.a.
  died/survived animals: 8/2
[1]; day 10, ampicillin 180 mg/kg + LD100 St.a.
  died/survived animals: 8/2
[1]; day 10, group 2: ampicillin 120 mg/ml i.v. one time
  died/survived animals: 8/2
[1]; [3]
  Mortality rate (%): 80%
  Survival rate (%): 20%
[2]; Staphylococcus aureus, iv, read-out: ED50 (50% effective dose)
  ED50: 17.3 mg/kg
[2]; ampicillin 20 mg/kg, tenth day
  Mortality rate (%): 50%
  Survival rate (%): 50%
[2]; day 1, ampicillin 20 mg/kg
  died/survived animals: 0/10
[2]; day 2, ampicillin 20 mg/kg
  died/survived animals: 0/10
[2]; day 3, ampicillin 20 mg/kg
  died/survived animals: 0/10
[2]; day 4, ampicillin 20 mg/kg
  died/survived animals: 1/9
[2]; day 5, ampicillin 20 mg/kg
  died/survived animals: 2/8
[2]; day 6, ampicillin 20 mg/kg
  died/survived animals: 3/7
[2]; day 7, ampicillin 20 mg/kg
  died/survived animals: 4/6
[2]; day 8, ampicillin 20 mg/kg
  died/survived animals: 4/6
[2]; day 9, ampicillin 20 mg/kg
  died/survived animals: 5/5
[2]; day 10, ampicillin 20 mg/kg
  died/survived animals: 5/5
